# In patent US12680078B2, “Differentiation of pluripotent stem cells and cardiac progenitor cells into striated cardiomyocyte fibers using laminins LN-511, LN-521 and LN-221” (National University of Singapore, priority 2013, dated 2026):
# Structures can show the parent of a compound that is named as a salt. Where two headings read alike, the source gives them in different places.
# What was measured:
# cardiomyocytes [1] = test: Multi-electrode assay (MEA) of cellular responses to adrenergic stimulation; type: cell-based, human; conditions: upon exposure
# Description: To further characterize the functionality of the cardiomyocytes, single cell patch clamp and multi-electrode assay (MEA) were utilized to measure their action potential. 13.60% mimicked the nodal subtype, 22.20% mimicked the atrial subtype, and 64.20% mimicked the heart ventricle subtype (see FIG. 8(C)).
# (§1) Cellular responses to adrenergic stimulation were also tested with MEA.
# cardiomyocytes [2] = test: Cell viability assay (ATP content) on hESC-derived cardiomyocytes; type: cell-based; conditions: Homo sapiens, Cardiomyocyte, read-out: EC50 (cell viability, ATP content)
# Description: FIG. 12G is a graph showing ATP content (relative light units×1000) versus log concentration of valinomycin. The y-axis runs from 0 to 5 in increments of 1. The x-axis runs from −7 to −3 in increments of 1.
# FIG. 12H is a graph showing ATP content (relative light units×1000) versus log concentration of emetine dihydrochloride. The y-axis runs from 0 to 6 in increments of 2. The x-axis runs from −8 to −3 in increments of 1.
# as §1
structure (smiles),measurement,setting,value
CC(C)NCC(O)c1ccc(NS(C)(=O)=O)cc1 (stereo not shown) [Sotalol],corrected field potential duration (cFPD),cardiomyocytes [1],shortened corrected field potential duration (cFPD)
CC[C@H]1CN2CCc3cc(OC)c(OC)cc3[C@@H]2C[C@@H]1C[C@H]1NCCc2cc(OC)c(OC)cc21 [emetine dihydrochloride],EC50,"cardiomyocytes [2]; hESC-derived cardiomyocytes, FIG. 12G/12H",6.08 µM
CC(C)NCC(O)c1ccc(O)c(O)c1 (stereo not shown) [isoproterenol],heart rate,cardiomyocytes [1],increased heart rate
CC(C)[C@@H]1NC(=O)[C@H](C)OC(=O)[C@@H](C(C)C)NC(=O)[C@@H](C(C)C)OC(=O)[C@H](C(C)C)NC(=O)[C@H](C)OC(=O)[C@@H](C(C)C)NC(=O)[C@@H](C(C)C)OC(=O)[C@H](C(C)C)NC(=O)[C@H](C)OC(=O)[C@@H](C(C)C)NC(=O)[C@@H](C(C)C)OC1=O [valinomycin],EC50,cardiomyocytes [2],13.1 µM
